According to ChEMBL document CHEMBL3885861, “Open TG-GATES”:

Organism: Rattus norvegicus
Assay: Open TG-GATES - Regimen: Single
Assay type: toxicity, organism-based, Sprague-Dawley
Design: regimen Single, gender Male, age 6 weeks
Settings: in vivo, po, 30 mg/kg, route gavage, dose level High; for APTT / Bas / Eos / Fbg / Hb / Ht / Lym / MCH / MCHC / MCV / Mono / Neu / PT / Plat / RBC / Ret / WBC: tissue Blood; for KIDNEY_L / KIDNEY_R / KIDNEY_TOTAL: tissue Kidney; for LIVER: tissue Liver; for A/G / ALP / ALT / AST / BUN / CRE / Ca / Cl / DBIL / GLC / IP / K / LDH / Na / PL / RALB / TBIL / TC / TG / TP / gamma-GTP: tissue Plasma

SMILES: Cn1cnc([N+](=O)[O-])c1Sc1ncnc2nc[nH]c12 [AZATHIOPRINE]
- TERMINAL_BW (3 h): 191.2 g
- APTT (3 h): 22.3 s
- Bas (3 h): 0%
- Eos (3 h): 1%
- Fbg (3 h): 297.8 mg/dL
- Hb (3 h): 13.1 g/dL
- Ht (3 h): 39.1%
- Lym (3 h): 71.8%
- MCH (3 h): 21.6 pg
- MCHC (3 h): 33.5%
- MCV (3 h): 64.6 fL
- Mono (3 h): 1.8%
- Neu (3 h): 24.6%
- PT (3 h): 15.5 s
- Plat (3 h): 118.4 x10_4/uL
- RBC (3 h): 605.8 x10_4/ul
- Ret (3 h): 9.2%
- WBC (3 h): 56 x10_2/uL
- KIDNEY_L (3 h): 0.9 g
- KIDNEY_R (3 h): 0.9 g
- KIDNEY_TOTAL (3 h): 1.7 g
- LIVER (3 h): 8.5 g
- A/G (3 h): 1.2
- ALP (3 h): 1649.8 IU/L
- ALT (3 h): 41.6 IU/L
- AST (3 h): 73.2 IU/L
- BUN (3 h): 10.6 mg/dL
- CRE (3 h): 0.1 mg/dL
- Ca (3 h): 10.3 mg/dL
- Cl (3 h): 104.8 meq/L
- DBIL (3 h): 0.004 mg/dL
- GLC (3 h): 182.8 mg/dL
- IP (3 h): 9 mg/dL
- K (3 h): 4 meq/L
- LDH (3 h): 171.8 IU/L
- Na (3 h): 143.2 meq/L
- PL (3 h): 138.4 mg/dL
- RALB (3 h): 3 g/dL
- TBIL (3 h): 0.01 mg/dL
- TC (3 h): 80.4 mg/dL
- TG (3 h): 47.6 mg/dL
- TP (3 h): 5.4 g/dL
- gamma-GTP (3 h): 1 IU/L
- TERMINAL_BW (6 h): 192.3 g
- APTT (6 h): 21 s
- Bas (6 h): 0%
- Eos (6 h): 0.8%
- Fbg (6 h): 311.8 mg/dL
- Hb (6 h): 13.2 g/dL
- Ht (6 h): 39.6%
- Lym (6 h): 71.4%
- MCH (6 h): 21.5 pg
- MCHC (6 h): 33.3%
- MCV (6 h): 64.8 fL
- Mono (6 h): 2.2%
- Neu (6 h): 25%
- PT (6 h): 15.5 s
- Plat (6 h): 120.3 x10_4/uL
- RBC (6 h): 612.2 x10_4/ul
- Ret (6 h): 9%
- WBC (6 h): 54.6 x10_2/uL
- KIDNEY_L (6 h): 0.9 g
- KIDNEY_R (6 h): 0.9 g
- KIDNEY_TOTAL (6 h): 1.8 g
- LIVER (6 h): 7.9 g
- A/G (6 h): 1.1
- ALP (6 h): 1635.4 IU/L
- ALT (6 h): 36.4 IU/L
- AST (6 h): 69.8 IU/L
- BUN (6 h): 9.8 mg/dL
- CRE (6 h): 0.2 mg/dL
- Ca (6 h): 10.6 mg/dL
- Cl (6 h): 104.8 meq/L
- DBIL (6 h): 0.002 mg/dL
- GLC (6 h): 187.4 mg/dL
- IP (6 h): 9.1 mg/dL
- K (6 h): 4.4 meq/L
- LDH (6 h): 221 IU/L
- Na (6 h): 141.2 meq/L
- PL (6 h): 127.2 mg/dL
- RALB (6 h): 2.9 g/dL
- TBIL (6 h): 0.008 mg/dL
- TC (6 h): 73.4 mg/dL
- TG (6 h): 44.6 mg/dL
- TP (6 h): 5.5 g/dL
- gamma-GTP (6 h): 1 IU/L
- TERMINAL_BW (9 h): 184.1 g
- APTT (9 h): 22 s
- Bas (9 h): 0%
- Eos (9 h): 0.8%
- Fbg (9 h): 328.4 mg/dL
- Hb (9 h): 12.7 g/dL
- Ht (9 h): 38.7%
- Lym (9 h): 74.4%
- MCH (9 h): 21.3 pg
- MCHC (9 h): 32.9%
- MCV (9 h): 64.9 fL
- Mono (9 h): 2.8%
- Neu (9 h): 20.6%
- PT (9 h): 15.5 s
- Plat (9 h): 102.9 x10_4/uL
- RBC (9 h): 598 x10_4/ul
- Ret (9 h): 9.2%
- WBC (9 h): 79 x10_2/uL
- KIDNEY_L (9 h): 0.8 g
- KIDNEY_R (9 h): 0.9 g
- KIDNEY_TOTAL (9 h): 1.7 g
- LIVER (9 h): 7.5 g
- A/G (9 h): 1.2
- ALP (9 h): 1634.6 IU/L
- ALT (9 h): 35.4 IU/L
- AST (9 h): 77 IU/L
- BUN (9 h): 11.4 mg/dL
- CRE (9 h): 0.1 mg/dL
- Ca (9 h): 10.5 mg/dL
- Cl (9 h): 106 meq/L
- DBIL (9 h): 0.002 mg/dL
- GLC (9 h): 190 mg/dL
- IP (9 h): 9.4 mg/dL
- K (9 h): 4.5 meq/L
- LDH (9 h): 231.8 IU/L
- Na (9 h): 140.8 meq/L
- PL (9 h): 140.2 mg/dL
- RALB (9 h): 2.9 g/dL
- TBIL (9 h): 0.01 mg/dL
- TC (9 h): 85.8 mg/dL
- TG (9 h): 37.2 mg/dL
- TP (9 h): 5.4 g/dL
- gamma-GTP (9 h): 1.2 IU/L
- TERMINAL_BW (24 h): 199.8 g
- APTT (24 h): 19.8 s
- Bas (24 h): 0%
- Eos (24 h): 0.8%
- Fbg (24 h): 345.2 mg/dL
- Hb (24 h): 13 g/dL
- Ht (24 h): 38.7%
- Lym (24 h): 86%
- MCH (24 h): 21.7 pg
- MCHC (24 h): 33.6%
- MCV (24 h): 64.6 fL
- Mono (24 h): 1.8%
- Neu (24 h): 10.4%
- PT (24 h): 15 s
- Plat (24 h): 125.5 x10_4/uL
- RBC (24 h): 599 x10_4/ul
- Ret (24 h): 7.7%
- WBC (24 h): 68.5 x10_2/uL
- KIDNEY_L (24 h): 0.9 g
- KIDNEY_R (24 h): 0.9 g
- KIDNEY_TOTAL (24 h): 1.8 g
- LIVER (24 h): 9.1 g
- A/G (24 h): 1.2
- ALP (24 h): 1513.8 IU/L
- ALT (24 h): 44.2 IU/L
- AST (24 h): 73.6 IU/L
- BUN (24 h): 15.4 mg/dL
- CRE (24 h): 0.1 mg/dL
- Ca (24 h): 11.1 mg/dL
- Cl (24 h): 105.2 meq/L
- DBIL (24 h): 0 mg/dL
- GLC (24 h): 190.8 mg/dL
- IP (24 h): 7.6 mg/dL
- K (24 h): 4.2 meq/L
- LDH (24 h): 210.4 IU/L
- Na (24 h): 142 meq/L
- PL (24 h): 161.2 mg/dL
- RALB (24 h): 3.1 g/dL
- TBIL (24 h): 0.014 mg/dL
- TC (24 h): 102.6 mg/dL
- TG (24 h): 39.4 mg/dL
- TP (24 h): 5.7 g/dL
- gamma-GTP (24 h): 1.4 IU/L
